In patent publication US20070092942A1, “Ubiquitin specific enzymes of family herpesviridae” (priority 2005, published 2007):
Peptide text beside a SMILES is read from it. * marks the point of attachment. Cbz = O=C(OCc1ccccc1)*; CH2F = FC*

What was measured:
Settings in all cases: FIGS. 6-7
Cezanne = target: T1, Cezanne (Homo sapiens, UniProt Q6GQQ9); assay: Western blot inhibitor screen, HA tagged Ub-VME probe, other enzymes; type: binding
T1 sequence (Q6GQQ9 1-843): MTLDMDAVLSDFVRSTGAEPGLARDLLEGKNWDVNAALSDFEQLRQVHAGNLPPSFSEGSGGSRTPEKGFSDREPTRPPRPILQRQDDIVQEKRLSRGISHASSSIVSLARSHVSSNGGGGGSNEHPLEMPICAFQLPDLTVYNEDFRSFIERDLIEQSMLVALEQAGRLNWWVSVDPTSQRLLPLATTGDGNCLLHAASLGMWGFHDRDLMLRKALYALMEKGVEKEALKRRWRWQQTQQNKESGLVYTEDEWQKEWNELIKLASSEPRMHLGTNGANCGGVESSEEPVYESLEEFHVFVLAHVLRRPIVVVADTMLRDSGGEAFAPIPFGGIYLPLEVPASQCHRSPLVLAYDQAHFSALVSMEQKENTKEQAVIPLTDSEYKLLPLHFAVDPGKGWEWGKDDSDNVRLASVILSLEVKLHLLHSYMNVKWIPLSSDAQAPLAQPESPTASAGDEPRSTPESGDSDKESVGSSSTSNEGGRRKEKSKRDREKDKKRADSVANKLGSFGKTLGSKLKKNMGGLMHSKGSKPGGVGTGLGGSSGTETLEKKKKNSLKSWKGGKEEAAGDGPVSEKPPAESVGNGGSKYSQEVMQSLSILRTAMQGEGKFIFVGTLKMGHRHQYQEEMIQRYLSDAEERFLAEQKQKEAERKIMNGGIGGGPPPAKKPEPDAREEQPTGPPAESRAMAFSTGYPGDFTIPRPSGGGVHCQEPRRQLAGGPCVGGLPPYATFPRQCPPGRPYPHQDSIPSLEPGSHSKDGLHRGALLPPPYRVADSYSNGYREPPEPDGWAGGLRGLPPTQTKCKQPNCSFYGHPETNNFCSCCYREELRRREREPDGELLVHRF

Ataxin-3 = Ataxin-3 (Homo sapiens, UniProt P54252); assay: as above; type: binding
UL36 = assay: Western blot screen for inhibitors: anti-HA blot of UL36 bound to HA tagged Ub-VME probe; type: binding, HSV-1
Text: FIGS. 6-7 is a series photographs showing the results of a screen for inhibitors of the Herpes deubiquitinating enzyme. The photographs show the results of Western blot assays: anti-HA blots for detecting UL36 bound to the HA tagged Ub-VME probe.

UCH-1 = target: T2, UCH-1 (Homo sapiens, UniProt P09936); assay: Western blot inhibitor screen, HA tagged Ub-VME probe, other enzymes; type: binding
T2 sequence (P09936 1-223): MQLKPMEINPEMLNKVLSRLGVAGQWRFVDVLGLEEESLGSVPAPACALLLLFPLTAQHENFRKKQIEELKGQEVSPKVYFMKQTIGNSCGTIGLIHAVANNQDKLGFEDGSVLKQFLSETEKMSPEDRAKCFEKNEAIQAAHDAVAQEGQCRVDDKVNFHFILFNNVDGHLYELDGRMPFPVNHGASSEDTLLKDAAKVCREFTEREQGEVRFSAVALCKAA

USP7 = USP7 (Homo sapiens, UniProt Q93009); assay: as above; type: binding
UCH-3 = target: T3, UCH-3 (Homo sapiens, UniProt P15374); assay: as above; type: binding
T3 sequence (P15374 1-230): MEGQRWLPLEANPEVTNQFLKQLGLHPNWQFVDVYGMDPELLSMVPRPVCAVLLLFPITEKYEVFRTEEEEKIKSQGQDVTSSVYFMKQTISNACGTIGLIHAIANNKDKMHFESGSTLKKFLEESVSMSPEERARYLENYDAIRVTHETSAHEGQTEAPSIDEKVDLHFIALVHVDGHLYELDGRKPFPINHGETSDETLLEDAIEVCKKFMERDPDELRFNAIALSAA

CYLD = target: T4, CYLD (Homo sapiens, UniProt Q9NQC7); assay: as above; type: binding
T4 sequence (Q9NQC7 1-956): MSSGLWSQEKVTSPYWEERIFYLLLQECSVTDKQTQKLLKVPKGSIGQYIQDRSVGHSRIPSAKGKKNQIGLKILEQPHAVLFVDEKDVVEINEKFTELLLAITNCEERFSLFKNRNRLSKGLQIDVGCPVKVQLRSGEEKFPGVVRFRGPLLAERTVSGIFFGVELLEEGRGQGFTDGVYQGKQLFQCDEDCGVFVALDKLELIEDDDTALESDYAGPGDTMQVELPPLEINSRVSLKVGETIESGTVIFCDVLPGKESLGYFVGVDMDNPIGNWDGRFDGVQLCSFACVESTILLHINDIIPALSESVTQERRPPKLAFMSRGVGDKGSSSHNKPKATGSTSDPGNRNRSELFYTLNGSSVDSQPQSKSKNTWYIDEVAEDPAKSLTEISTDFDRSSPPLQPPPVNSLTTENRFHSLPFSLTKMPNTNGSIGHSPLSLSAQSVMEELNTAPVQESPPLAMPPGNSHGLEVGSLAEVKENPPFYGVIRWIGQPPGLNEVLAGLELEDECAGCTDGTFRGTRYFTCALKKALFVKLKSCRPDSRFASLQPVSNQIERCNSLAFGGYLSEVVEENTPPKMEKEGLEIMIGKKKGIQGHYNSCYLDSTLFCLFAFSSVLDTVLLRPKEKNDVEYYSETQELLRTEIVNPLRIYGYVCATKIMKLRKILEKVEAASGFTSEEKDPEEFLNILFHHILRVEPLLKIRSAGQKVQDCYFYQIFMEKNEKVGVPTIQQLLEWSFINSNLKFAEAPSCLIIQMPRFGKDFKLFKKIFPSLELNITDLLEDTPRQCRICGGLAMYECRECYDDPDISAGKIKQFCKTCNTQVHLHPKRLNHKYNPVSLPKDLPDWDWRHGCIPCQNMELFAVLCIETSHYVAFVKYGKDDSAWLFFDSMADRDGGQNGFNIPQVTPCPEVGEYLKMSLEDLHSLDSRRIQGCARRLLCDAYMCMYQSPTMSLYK

Sequence of Ataxin-3 (P54252 whole entry, species assumed): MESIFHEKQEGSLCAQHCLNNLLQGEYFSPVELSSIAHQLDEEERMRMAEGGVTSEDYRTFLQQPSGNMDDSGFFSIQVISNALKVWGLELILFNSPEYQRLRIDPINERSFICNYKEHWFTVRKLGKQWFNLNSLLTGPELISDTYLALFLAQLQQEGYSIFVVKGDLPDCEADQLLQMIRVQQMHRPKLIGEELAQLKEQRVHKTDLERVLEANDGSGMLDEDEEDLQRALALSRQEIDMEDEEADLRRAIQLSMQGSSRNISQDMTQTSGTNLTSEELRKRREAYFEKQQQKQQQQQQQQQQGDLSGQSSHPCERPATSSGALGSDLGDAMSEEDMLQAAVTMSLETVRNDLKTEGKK
Sequence of USP7 (Q93009 whole entry, species assumed): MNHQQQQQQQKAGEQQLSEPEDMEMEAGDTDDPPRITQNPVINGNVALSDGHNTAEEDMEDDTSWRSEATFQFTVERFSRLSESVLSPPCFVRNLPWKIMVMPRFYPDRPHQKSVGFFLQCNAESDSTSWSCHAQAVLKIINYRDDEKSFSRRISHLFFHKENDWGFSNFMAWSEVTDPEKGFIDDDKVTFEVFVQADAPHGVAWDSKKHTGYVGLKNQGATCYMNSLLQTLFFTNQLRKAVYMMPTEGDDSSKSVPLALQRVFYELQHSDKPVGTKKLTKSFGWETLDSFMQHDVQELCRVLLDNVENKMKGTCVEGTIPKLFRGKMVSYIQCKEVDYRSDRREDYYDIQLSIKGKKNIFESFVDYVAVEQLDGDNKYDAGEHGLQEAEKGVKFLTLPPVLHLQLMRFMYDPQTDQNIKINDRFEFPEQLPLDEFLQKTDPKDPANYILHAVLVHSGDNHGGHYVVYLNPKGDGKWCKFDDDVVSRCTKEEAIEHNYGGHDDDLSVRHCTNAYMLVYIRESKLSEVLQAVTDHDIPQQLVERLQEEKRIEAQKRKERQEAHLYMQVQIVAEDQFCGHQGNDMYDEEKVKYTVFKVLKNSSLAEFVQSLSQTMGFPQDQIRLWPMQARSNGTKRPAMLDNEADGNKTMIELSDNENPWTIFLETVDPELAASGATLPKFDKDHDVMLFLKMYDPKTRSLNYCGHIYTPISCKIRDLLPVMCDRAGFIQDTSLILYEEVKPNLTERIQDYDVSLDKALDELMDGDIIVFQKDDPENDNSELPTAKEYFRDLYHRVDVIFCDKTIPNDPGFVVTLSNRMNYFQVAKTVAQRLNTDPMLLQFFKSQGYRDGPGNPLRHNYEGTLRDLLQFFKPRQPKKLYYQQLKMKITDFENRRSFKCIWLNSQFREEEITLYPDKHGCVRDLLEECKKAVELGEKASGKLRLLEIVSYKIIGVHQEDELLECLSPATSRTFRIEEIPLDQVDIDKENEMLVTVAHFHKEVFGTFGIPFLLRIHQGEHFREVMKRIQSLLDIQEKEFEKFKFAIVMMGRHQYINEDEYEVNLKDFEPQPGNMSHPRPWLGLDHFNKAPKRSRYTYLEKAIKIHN

CC(C)[C@H](NC(=O)OCc1ccccc1)C(=O)N[C@@H](C)C(=O)N[C@@H](C)C(=O)CF [Z-VA-L-A-fink] (Cbz-Val-Ala-Ala-CH2F)
Inhibition of Cezanne (Cezanne): did not inhibit
Inhibition of Ataxin-3 (Ataxin-3): did not inhibit
Inhibition of UL36 (HA band of UL36 bound to HA tagged Ub-VME probe decreases or disappears) (UL36): specifically inhibited
Inhibition of UCH-1 (UCH-1): did not inhibit
Inhibition of USP7 (USP7): did not inhibit
Inhibition of UCH-3 (UCH-3): did not inhibit
Inhibition of CYLD (CYLD): did not inhibit
